Patent US20250114345A1, “COMPOUNDS AND COMPOSITIONS AS CBP/P300 DEGRADERS AND USES THEREOF” (Oncopia Therapeutics, Inc. d/b/a/ SK Life Science Labs, priority 2023, published 2025)

Columns and labels:
CBP = target: T1, CBP (Homo sapiens, UniProt Q92793); assay: CBP degradation, HiBit technology in A549 CBP HiBit cells (24 h); type: cell-based; details: 24 hrs post treatment
T1 construct: host or cells: A549 CBP HiBit cells
How it was run: (§1)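 HiBiT knock-in A549 cells received compound in serial dilution at 37 °C under 5% CO2. Remaining tagged protein was quantified by lytic HiBiT luminescence after 10 min shaking at room temperature, yielding potency and maximal degradation.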

p300 = target: T2, p300 (Homo sapiens, UniProt Q09472); assay: P300 degradation, HiBit technology in A549 P300 HiBit cells (2 h); type: cell-based; details: 2 hrs post treatment; for Dmax: A549, A549 P300 HiBit cells; for DC50: A549 P300 HiBit cells
T2 construct: host or cells: A549 P300 HiBit cells
How it was run: as §1

T2 sequence (Q09472 whole entry): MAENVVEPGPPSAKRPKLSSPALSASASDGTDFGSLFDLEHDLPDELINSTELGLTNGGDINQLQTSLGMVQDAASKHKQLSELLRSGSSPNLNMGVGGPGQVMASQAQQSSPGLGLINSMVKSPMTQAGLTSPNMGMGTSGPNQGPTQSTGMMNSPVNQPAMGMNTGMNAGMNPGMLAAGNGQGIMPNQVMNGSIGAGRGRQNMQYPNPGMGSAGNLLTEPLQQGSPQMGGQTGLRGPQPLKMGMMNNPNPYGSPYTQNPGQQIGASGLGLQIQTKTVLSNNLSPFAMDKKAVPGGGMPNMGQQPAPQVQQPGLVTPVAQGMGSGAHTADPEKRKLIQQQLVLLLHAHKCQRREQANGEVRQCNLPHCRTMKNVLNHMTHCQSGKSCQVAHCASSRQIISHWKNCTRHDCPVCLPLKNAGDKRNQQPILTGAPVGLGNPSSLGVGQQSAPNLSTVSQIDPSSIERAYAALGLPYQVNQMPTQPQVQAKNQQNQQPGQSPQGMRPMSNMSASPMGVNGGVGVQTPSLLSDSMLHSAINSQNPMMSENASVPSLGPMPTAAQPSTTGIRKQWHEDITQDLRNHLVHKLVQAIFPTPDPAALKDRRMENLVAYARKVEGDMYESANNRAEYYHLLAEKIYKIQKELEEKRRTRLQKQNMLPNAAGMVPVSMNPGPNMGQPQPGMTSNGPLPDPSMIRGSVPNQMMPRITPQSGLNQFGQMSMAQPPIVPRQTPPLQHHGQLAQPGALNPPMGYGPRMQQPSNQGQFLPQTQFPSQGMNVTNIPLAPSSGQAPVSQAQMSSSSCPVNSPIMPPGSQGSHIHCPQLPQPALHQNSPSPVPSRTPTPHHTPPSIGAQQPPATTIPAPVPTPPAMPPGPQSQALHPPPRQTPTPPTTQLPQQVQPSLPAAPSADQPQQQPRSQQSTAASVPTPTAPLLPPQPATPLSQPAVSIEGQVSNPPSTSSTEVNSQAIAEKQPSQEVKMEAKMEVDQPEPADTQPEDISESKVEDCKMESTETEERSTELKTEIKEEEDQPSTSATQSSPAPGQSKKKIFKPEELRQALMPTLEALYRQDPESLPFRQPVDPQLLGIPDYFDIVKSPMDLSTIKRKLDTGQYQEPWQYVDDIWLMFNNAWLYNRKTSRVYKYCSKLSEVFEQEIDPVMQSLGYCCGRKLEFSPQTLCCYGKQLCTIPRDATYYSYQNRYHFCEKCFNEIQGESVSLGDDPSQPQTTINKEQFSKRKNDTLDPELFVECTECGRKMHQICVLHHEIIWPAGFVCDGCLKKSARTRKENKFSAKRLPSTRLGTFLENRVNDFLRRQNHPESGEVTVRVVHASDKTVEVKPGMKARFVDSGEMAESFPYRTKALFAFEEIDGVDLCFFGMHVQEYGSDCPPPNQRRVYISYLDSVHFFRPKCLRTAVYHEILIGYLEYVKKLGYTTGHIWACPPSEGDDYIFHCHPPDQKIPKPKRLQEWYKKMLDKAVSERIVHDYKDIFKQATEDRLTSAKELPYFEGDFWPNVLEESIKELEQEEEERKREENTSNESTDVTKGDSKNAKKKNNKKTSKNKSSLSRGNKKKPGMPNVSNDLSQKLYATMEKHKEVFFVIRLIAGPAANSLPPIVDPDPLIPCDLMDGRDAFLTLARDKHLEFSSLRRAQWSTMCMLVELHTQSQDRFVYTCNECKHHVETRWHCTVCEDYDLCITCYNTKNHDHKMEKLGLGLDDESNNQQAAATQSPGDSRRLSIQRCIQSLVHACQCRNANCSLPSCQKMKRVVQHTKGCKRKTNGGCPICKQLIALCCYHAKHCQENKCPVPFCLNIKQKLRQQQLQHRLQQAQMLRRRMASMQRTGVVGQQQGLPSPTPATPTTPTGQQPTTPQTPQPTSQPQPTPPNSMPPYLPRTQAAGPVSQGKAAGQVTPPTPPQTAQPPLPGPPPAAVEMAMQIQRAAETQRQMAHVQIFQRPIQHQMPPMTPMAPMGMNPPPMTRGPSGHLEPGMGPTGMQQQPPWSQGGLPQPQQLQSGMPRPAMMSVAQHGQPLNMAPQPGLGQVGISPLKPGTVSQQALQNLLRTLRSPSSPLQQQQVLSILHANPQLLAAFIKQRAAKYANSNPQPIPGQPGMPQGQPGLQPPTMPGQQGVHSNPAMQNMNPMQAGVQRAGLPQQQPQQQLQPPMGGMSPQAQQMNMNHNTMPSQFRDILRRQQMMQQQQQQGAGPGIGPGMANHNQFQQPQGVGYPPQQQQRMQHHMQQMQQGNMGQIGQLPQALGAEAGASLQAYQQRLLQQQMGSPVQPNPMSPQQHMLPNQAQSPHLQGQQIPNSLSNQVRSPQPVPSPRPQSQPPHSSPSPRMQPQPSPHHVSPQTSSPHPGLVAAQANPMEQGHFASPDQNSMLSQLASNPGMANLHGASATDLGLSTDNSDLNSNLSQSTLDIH
T1 sequence (Q92793 whole entry): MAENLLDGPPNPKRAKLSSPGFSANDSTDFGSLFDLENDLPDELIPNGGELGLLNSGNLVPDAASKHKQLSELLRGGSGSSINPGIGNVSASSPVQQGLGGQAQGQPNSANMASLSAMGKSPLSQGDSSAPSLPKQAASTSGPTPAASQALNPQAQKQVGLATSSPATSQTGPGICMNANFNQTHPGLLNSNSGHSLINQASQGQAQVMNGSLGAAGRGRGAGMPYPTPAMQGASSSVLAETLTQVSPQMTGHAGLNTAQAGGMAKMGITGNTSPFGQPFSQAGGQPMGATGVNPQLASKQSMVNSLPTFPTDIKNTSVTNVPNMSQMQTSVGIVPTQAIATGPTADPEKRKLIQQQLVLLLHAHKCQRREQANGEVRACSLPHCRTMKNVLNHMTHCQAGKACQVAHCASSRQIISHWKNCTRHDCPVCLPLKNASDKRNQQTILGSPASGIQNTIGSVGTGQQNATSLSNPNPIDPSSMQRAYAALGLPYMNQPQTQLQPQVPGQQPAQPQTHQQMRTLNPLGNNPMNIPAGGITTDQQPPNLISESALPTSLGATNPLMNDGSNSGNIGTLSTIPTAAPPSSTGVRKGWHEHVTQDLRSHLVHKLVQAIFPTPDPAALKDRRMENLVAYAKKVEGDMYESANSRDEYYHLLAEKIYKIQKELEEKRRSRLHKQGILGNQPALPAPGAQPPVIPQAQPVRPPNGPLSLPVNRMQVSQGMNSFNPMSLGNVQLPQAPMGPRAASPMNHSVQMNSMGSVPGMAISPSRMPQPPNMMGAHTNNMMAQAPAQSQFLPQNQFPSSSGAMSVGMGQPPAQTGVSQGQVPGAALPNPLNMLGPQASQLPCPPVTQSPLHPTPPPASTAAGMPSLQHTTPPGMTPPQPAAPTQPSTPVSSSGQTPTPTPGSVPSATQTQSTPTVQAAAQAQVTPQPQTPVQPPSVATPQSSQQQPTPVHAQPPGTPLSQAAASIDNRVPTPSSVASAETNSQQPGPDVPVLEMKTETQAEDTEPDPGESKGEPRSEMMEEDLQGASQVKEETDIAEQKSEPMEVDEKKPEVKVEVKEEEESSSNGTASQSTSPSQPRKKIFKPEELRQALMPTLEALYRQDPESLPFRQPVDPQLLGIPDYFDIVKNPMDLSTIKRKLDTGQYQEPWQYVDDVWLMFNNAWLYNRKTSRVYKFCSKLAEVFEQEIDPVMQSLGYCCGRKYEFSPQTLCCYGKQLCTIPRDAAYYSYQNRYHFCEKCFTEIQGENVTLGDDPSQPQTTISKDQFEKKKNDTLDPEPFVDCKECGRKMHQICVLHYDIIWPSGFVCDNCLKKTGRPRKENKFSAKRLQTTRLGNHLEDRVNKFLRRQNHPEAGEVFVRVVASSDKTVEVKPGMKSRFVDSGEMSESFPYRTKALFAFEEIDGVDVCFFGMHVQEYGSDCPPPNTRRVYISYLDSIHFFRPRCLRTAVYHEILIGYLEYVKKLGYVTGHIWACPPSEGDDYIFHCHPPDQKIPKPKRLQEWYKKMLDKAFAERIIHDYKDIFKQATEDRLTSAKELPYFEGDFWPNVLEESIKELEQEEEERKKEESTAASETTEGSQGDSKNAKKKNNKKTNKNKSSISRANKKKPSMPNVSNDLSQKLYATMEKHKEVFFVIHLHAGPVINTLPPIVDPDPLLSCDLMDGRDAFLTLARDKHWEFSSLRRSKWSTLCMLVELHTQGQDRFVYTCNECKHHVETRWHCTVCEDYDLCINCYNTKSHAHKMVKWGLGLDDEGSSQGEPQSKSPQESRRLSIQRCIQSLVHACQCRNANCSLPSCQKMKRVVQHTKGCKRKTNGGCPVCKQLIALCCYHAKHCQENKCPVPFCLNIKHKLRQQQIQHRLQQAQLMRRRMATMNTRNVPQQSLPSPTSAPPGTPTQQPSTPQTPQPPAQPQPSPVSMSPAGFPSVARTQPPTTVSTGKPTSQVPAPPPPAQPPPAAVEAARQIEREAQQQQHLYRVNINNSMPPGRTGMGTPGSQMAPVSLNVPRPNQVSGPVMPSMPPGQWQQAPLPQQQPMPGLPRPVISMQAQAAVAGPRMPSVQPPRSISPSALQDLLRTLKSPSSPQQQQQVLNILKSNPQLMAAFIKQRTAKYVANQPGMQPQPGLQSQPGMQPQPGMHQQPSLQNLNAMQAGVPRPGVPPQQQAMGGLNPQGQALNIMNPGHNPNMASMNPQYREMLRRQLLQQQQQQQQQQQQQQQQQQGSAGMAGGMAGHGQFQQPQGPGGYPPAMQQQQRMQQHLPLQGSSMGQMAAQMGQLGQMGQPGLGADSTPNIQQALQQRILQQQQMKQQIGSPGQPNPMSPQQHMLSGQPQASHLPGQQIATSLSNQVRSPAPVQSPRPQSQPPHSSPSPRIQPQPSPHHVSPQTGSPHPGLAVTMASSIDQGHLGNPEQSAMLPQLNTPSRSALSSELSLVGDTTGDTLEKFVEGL

| SMILES | DC50 (CBP) [nM] | Dmax (CBP) [%] | Dmax (p300) [%] | DC50 (p300) [nM] |
| --- | --- | --- | --- | --- |
| Cn1c(=O)n(C)c2c(N3CCOCC3)cc(N3CCCc4nc(-c5ccc(C(=O)NCC#Cc6ccc7occ(C8CCC(=O)NC8=O)c7c6)nc5)ncc43)cc21 (stereo not drawn) [Example A127, 5-(5-(1,3-dimethyl-7-morpholino-2-oxo-2,3-dihydro-1H-benzo [d]imidazol-5-yl)-5,6,7,8-tetrahydro-pyrido[3,2-d]pyrimidin-2-yl)-N-(3-(3-(2,6-dioxopiperidin-3-yl)benzofuran-5-yl)prop-2-yn-1-yl)picolinamide] | > 1000 | < 20 | > 80 | < 1 |
| Cn1c(=O)n(C)c2cc(N3CCCc4nc(-c5ccc(C(=O)NCC#Cc6ccc7occ(C8CCC(=O)NC8=O)c7c6)nc5)ncc43)ccc21 (stereo not drawn) [Example A132, 5-(5-(1,3-dimethyl-2-oxo-2,3-dihydro-1H-benzo[d]imidazol-5-yl)-5,6,7,8-tetrahydropyrido[3,2-d]pyrimidin-2-yl)-N-(3-(3-(2,6-dioxo-piperidin-3-yl)benzofuran-5-yl)prop-2-yn-1-yl)picolinamide] | > 1000 | < 20 | > 80 | 1 to 9.9 |
| CC(C)c1cc(N2CCCc3nc(-c4ccc(C(=O)NCC#Cc5ccc6occ(C7CCC(=O)NC7=O)c6c5)nc4)ncc32)cc2c1n(C)c(=O)n2C (stereo not drawn) [Example A133, N-(3-(3-(2,6-dioxo-piperidin-3-yl)benzofuran-5-yl)prop-2-yn-1-yl)-5-(5-(7-isopropyl-1,3-dimethyl-2-oxo-2,3-dihydro-1H-benzo [d]imidazol-5-yl)-5,6,7,8-tetrahydro-pyrido[3,2-d]pyrimidin-2-yl)picolinamide] | 100 to 999 | < 20 | > 80 | 1 to 9.9 |
| Cn1c(=O)n(C)c2c(N3CC4(COC4)C3)nc(-c3cccc4cc(-c5ccc(C(=O)NCC#Cc6ccc7occ(C8CCC(=O)NC8=O)c7c6)nc5)ncc34)cc21 (stereo not drawn) [Example A136, 5-(8-(1,3-dimethyl-2-oxo-4-(2-oxa-6-azaspiro[3.3]heptan-6-yl)-2,3-dihydro-1H-imidazo[4,5-c]pyridin-6-yl)isoquinolin-3-yl)-N-(3-(3-(2,6-dioxopiperidin-3-yl)benzofuran-5-yl)prop-2-yn-1-yl)picolinamide] | > 1000 | < 20 | > 80 | 1 to 9.9 |
| Cn1c(=O)n(C)c2c(N3CCOCC3)nc(-c3cccc4cc(-c5ccc(C(=O)NCC#Cc6ccc7occ(C8CCC(=O)NC8=O)c7c6)nc5)ncc34)cc21 (stereo not drawn) [Example A138, 5-(8-(1,3-dimethyl-4-morpholino-2-oxo-2,3-dihydro-1H-imidazo[4,5-c]pyridin-6-yl)isoquinolin-3-yl)-N-(3-(3-(2,6-dioxopiperidin-3-yl)benzofuran-5-yl)prop-2-yn-1-yl)picolinamide] | > 1000 | < 20 | > 80 | < 1 |
| CN1CCN(c2ccc3c(c2)n(C)c(=O)n3C)c2cnc(-c3ccc(C(=O)NCC#Cc4ccc5occ(C6CCC(=O)NC6=O)c5c4)nc3)cc21 (stereo not drawn) [Example A139, 5-(4-(1,3-dimethyl-2-oxo-2,3-dihydro-1H-benzo[d]imidazol-5-yl)-1-methyl-1,2,3,4-tetrahydropyrido[3,4-b]pyrazin-7-yl)-N-(3-(3-(2,6-dioxo-piperidin-3-yl)benzofuran-5-yl)prop-2-yn-1-yl)picolinamide] | > 1000 | < 20 | > 80 | < 1 |
| Cn1c(=O)n(C)c2c(N3CC(C)(O)C3)nc(-c3cccc4cc(-c5ccc(C(=O)NCC#Cc6ccc7occ(C8CCC(=O)NC8=O)c7c6)nc5)ncc34)cc21 (stereo not drawn) [Example A145, N-(3-(3-(2,6-dioxo-piperidin-3-yl)benzofuran-5-yl)prop-2-yn-1-yl)-5-(8-(4-(3-hydroxy-3-methylazetidin-1-yl)-1,3-dimethyl-2-oxo-2,3-dihydro-1H-imidazo[4,5-c]pyridin-6-yl)isoquinolin-3-yl)picolinamide] | > 1000 | < 20 | > 80 | < 1 |
| Cc1cc(-c2cc3cccc(-c4cc5c(c(N6CCOCC6)n4)n(C)c(=O)n5C)c3cn2)cnc1C(=O)NCC#Cc1ccc2occ(C3CCC(=O)NC3=O)c2c1 (stereo not drawn) [Example A150, 5-(8-(1,3-dimethyl-4-morpholino-2-oxo-2,3-dihydro-1H-imidazo[4,5-c]pyridin-6-yl)isoquinolin-3-yl)-N-(3-(3-(2,6-dioxopiperidin-3-yl)benzofuran-5-yl)prop-2-yn-1-yl)-3-methylpicolinamide] | > 1000 | < 20 | > 80 | 1 to 9.9 |
| Cc1cc(-c2cc3cccc(-c4ccc5c(c4)n(C)c(=O)n5C)c3cn2)cnc1C(=O)NCC#Cc1ccc2occ(C3CCC(=O)NC3=O)c2c1 (stereo not drawn) [Example A155, 5-(8-(1,3-dimethyl-2-oxo-2,3-dihydro-1H-benzo[d]imidazol-5-yl)isoquinolin-3-yl)-N-(3-(3-(2,6-dioxo-piperidin-3-yl)benzofuran-5-yl)prop-2-yn-1-yl)-3-methylpicolinamide] | > 1000 | < 20 | > 80 | 1 to 9.9 |
| CC(C)c1cc(-c2cccc3cc(-c4ccc(C(=O)NCC#Cc5ccc6oc(F)c(C7CCC(=O)NC7=O)c6c5)nc4)ncc23)cc2c1n(C)c(=O)n2C (stereo not drawn) [Example A158, N-(3-(3-(2,6-dioxo-piperidin-3-yl)-2-fluorobenzofuran-5-yl)prop-2-yn-1-yl)-5-(8-(7-isopropyl-1,3-dimethyl-2-oxo-2,3-dihydro-1H-benzo [d]imidazol-5-yl)isoquinolin-3-yl)picolinamide] | 10 to 99 | 40 to 59 | > 80 | 1 to 9.9 |
| Cc1cc(N2CCOc3nc(-c4ccc(C(=O)NCC#Cc5cc6c(C7CCC(=O)NC7=O)nccc6o5)nc4)ncc32)cc2c1n(C)c(=O)n2C (stereo not drawn) [Example A160, N-(3-(4-(2,6-dioxo-piperidin-3-yl)furo[3,2-c]pyridin-2-yl)prop-2-yn-1-yl)-5-(5-(1,3,7-trimethyl-2-oxo-2,3-dihydro-1H-benzo[d]imidazol-5-yl)-6,7-dihydro-5H-pyrimido[4,5-b] [1,4]oxazin-2-yl)picolinamide] | > 1000 | < 20 | > 80 | < 1 |
| CC(C)c1cc(N2CCOc3cc(-c4ccc(C(=O)NCC#Cc5ccn6ncc(C7CCC(=O)NC7=O)c6c5)nc4)ncc32)cc2c1n(C)c(=O)n2C (stereo not drawn) [Example A161, N-(3-(3-(2,6-dioxo-piperidin-3-yl)pyrazolo[1,5-a]pyridin-5-yl)prop-2-yn-1-yl)-5-(4-(7-isopropyl-1,3-dimethyl-2-oxo-2,3-dihydro-1H-benzo[d]imidazol-5-yl)-3,4-dihydro-2H-pyrido[4,3-b][1,4]oxazin-7-yl)picolinamide] | 100 to 999 | < 20 | > 80 | < 1 |
| Cn1c(=O)n(C)c2ncc(-c3cccc4cc(-c5ccc(C(=O)NCC#Cc6cc7c(C8CCC(=O)NC8=O)cccc7o6)nc5)ncc34)cc21 (stereo not drawn) [Example A162, 5-(8-(1,3-dimethyl-2-oxo-2,3-dihydro-1H-imidazo[4,5-b]pyridin-6-yl)isoquinolin-3-yl)-N-(3-(4-(2,6-dioxopiperidin-3-yl)benzofuran-2-yl)prop-2-yn-1-yl)picolinamide] | 100 to 999 | < 20 | > 80 | < 1 |
| Cn1c(=O)n(C)c2cc(-c3cccc4cc(-c5ccc(C(=O)NCC#Cc6ccc7nnn(C8CCC(=O)NC8=O)c7c6)nc5)ncc34)ccc21 (stereo not drawn) [Example A163, 5-(8-(1,3-dimethyl-2-oxo-2,3-dihydro-1H-benzo[d]imidazol-5-yl)isoquinolin-3-yl)-N-(3-(1-(2,6-dioxo-piperidin-3-yl)-1H-benzo[d][1,2,3]triazol-6-yl)prop-2-yn-1-yl)picolinamide] | > 1000 | < 20 | > 80 | < 1 |
| CC(C)c1cc(-c2cccc3cc(-c4ccc(C(=O)NCC#Cc5ccc6scc(C7CCC(=O)NC7=O)c6c5)nc4)ncc23)cc2c1n(C)c(=O)n2C (stereo not drawn) [Example A164, N-(3-(3-(2,6-dioxo-piperidin-3-yl)benzo[b]thiophen-5-yl)prop-2-yn-1-yl)-5-(8-(7-isopropyl-1,3-dimethyl-2-oxo-2,3-dihydro-1H-benzo [d]imidazol-5-yl)isoquinolin-3-yl)picolinamide] | > 1000 | < 20 | > 80 | 10 to 99 |
| Cn1c(=O)n(C)c2cc(N3CCOc4nc(-c5ccc(C(=O)NCC#Cc6cc7c(C8CCC(=O)NC8=O)cccc7o6)nc5)ncc43)ccc21 (stereo not drawn) [Example A165, 5-(5-(1,3-dimethyl-2-oxo-2,3-dihydro-1H-benzo[d]imidazol-5-yl)-6,7-dihydro-5H-pyrimido[4,5-b][1,4]oxazin-2-yl)-N-(3-(4-(2,6-dioxopiperidin-3-yl)benzofuran-2-yl)prop-2-yn-1-yl)picolinamide] | > 1000 | < 20 | > 80 | 1 to 9.9 |
| Cn1c(=O)n(C)c2cc(-c3cccc4cc(-c5ccc(C(=O)NCC#Cc6cc7c(C8CCC(=O)NC8=O)cccc7o6)nc5)ncc34)ccc21 (stereo not drawn) [Example A169, 5-(8-(1,3-dimethyl-2-oxo-2,3-dihydro-1H-benzo[d]imidazol-5-yl)isoquinolin-3-yl)-N-(3-(4-(2,6-dioxo-piperidin-3-yl)benzofuran-2-yl)prop-2-yn-1-yl)picolinamide] | > 1000 | < 20 | > 80 | < 1 |
| Cn1c(=O)n(C)c2cc(-c3cccc4cc(-c5ccc(C(=O)NCC#Cc6cc7c([C@H]8CCC(=O)NC8=O)cccc7o6)nc5)ncc34)ccc21 [Example A170, (R)-5-(8-(1,3-dimethyl-2-oxo-2,3-dihydro-1H-benzo[d]imidazol-5-yl)isoquinolin-3-yl)-N-(3-(4-(2,6-dioxo-piperidin-3-yl)benzofuran-2-yl)prop-2-yn-1-yl)picolinamide] | > 1000 | < 20 | > 80 | < 1 |
